From patent US10835500B2, “Medicament for accelerated wound healing” (Symrise AG, priority 2014, dated 2020)
Blank lines part the entries; values can stand above or below the compound they belong to.

Legend:
HaCaT cells = experiment: Calcium imaging in HaCaT cells; format: cell-based, human; details: for effect of blocker on Sandalore-induced calcium signals: HaCaT cells, EGTA 10 mM calcium-free, SQ-22536 100 μM, MDL-12330A 40 μM, U-73122 10 μM, L-cis-diltiazem 150 μM; for increase of the first amplitude induced by Sandalore after preincubation with gap junction blocker: HaCaT, 1-octanol 500 μM or carbenoxolone 10 μM, Sandalore 500 μM
Experimental: In the fourth application, saturation occurred at approx. 500 μM (FIG. 9d). The ECR50R value was 430 μM of Sandalore® in the first application and 112 μM of Sandalore® in the fourth application.
The Sandalore®-induced signal cascade in HaCaT cells and primary keratinocytes was pharmacologically characterized using the calcium imaging technique and specific blockers of signal cascade proteins. An investigation was first conducted in order to determine whether the calcium signals are caused by calcium inflow from the extracellular space. For this purpose, a calcium-free extracellular solution was used with a calcium chelator (EGTA) added. […] In order to investigate the role of adenylyl cyclase, the specific blockers SQ-22536 and MDL-12330A were used. […] The efficacy of the blockers was tested in this case with histamine, which activated the PLC signalling pathway (FIG. 11c). […]
In order to characterize the antagonists, HaCaT cells were first repeatedly stimulated with Sandalore® (1 mM). On the third application, costimulation (1:1) with Sandalore® and one of the antagonists took place. […] Based on this, dose-dependent characterization of inhibition was to be carried out. For this purpose, Sandalore® and the antagonists were costimulated with different concentrations.
(§1) Effect of the OR2AT4 ligand Sandalore® on intracellular calcium concentration of cultivated keratinocytes. […] 100 μM of ATP was used at the end of each measurement as a positive control stimulus. Right: Quantitative evaluation of calcium signals in 4-time application of Sandalore® (500 μM). Shown are the mean values of the individual applications including standard error. Mann-Whitney U test. *: p<0.05. C) and D): dose-dependent activation of HaCaT cells in calcium imaging experiments. Shown are the mean amplitudes including standard error at various concentrations in the first (C) and fourth (D) Sandalore® application. Number of cells measured: 0.0125 mM (39), 0.025 mM (30), 0.1 mM (46), 0.5 mM (34), 1 mM (63), 2 mM (41), 10 mM (36).
(§2) A) Representative calcium imaging traces of HaCaT cells (left) and primary keratinocytes (right) incubated with the gap junction blocker 1-octanol (500 μM) and then repeatedly stimulated with Sandalore® (500 μM, horizontal bars) (blue trace). […] 100 μM of ATP was used at the end of each measurement as a positive control stimulus. Quantitative evaluation of HaCaT cells (B) and primary keratinocytes (C) incubated with the gap junction blockers 1-octanol (500 μM) or carbenoxolone (10 μM) and then repeatedly stimulated with Sandalore® (500 μM) or Lyral (1 mM) in calcium imaging experiments. Shown are the mean values of the individual applications including standard error relative to the control measurements (Sandalore® application without blocker). Mann-Whitney U test. Number of cells measured: Sandalore®+1-octanol (HaCaT (110), keratinocytes (26)); Sandalore®+carbenoxolone: HaCaT (74); Lyral+carbenoxolone: HaCaT (43). ***: p<0.001.
Pharmacological characterization of Sandalore®-induced signal cascade in human keratinocytes. A)-D). Shown are representative calcium imaging traces of primary keratinocytes in the presence of a blocker (blue). The horizontal bars correspond to the application times. 100 μM of ATP was used at the end of each measurement as a positive control stimulus. A) Measurement with calcium-free extracellular solution (+10 mM EGTA). B) Measurement with the adenylyl cyclase blocker SQ-22536 (100 μM). C) Use of the phospholipase-C blocker U-73122 (10 μM). 100 μM of histamine was taken as a positive control. D) Measurement with the CNG channel blocker L-cis-diltiazem (150 μM). E) Overview of pharmacological measurement of HaCaT cells and primary keratinocytes (Kera). The mean amplitudes relative to the control measurements (dashed line) are indicated. MDL-12330A (40 μM). […]

primary keratinocytes = experiment: Calcium imaging in primary keratinocytes; format: cell-based, human; details: for effect of blocker on Sandalore-induced calcium signals: primary keratinocytes, EGTA 10 mM calcium-free, SQ-22536 100 μM, MDL-12330A 40 μM, U-73122 10 μM, L-cis-diltiazem 150 μM
Excerpt: The Sandalore®-induced signal cascade in HaCaT cells and primary keratinocytes was pharmacologically characterized using the calcium imaging technique and specific blockers of signal cascade proteins. An investigation was first conducted in order to determine whether the calcium signals are caused by calcium inflow from the extracellular space. For this purpose, a calcium-free extracellular solution was used with a calcium chelator (EGTA) added. […] In order to investigate the role of adenylyl cyclase, the specific blockers SQ-22536 and MDL-12330A were used. […] The efficacy of the blockers was tested in this case with histamine, which activated the PLC signalling pathway (FIG. 11c).
as §1, §2
Pharmacological characterization of Sandalore®-induced signal cascade in human keratinocytes. A)-D). Shown are representative calcium imaging traces of primary keratinocytes in the presence of a blocker (blue). The horizontal bars correspond to the application times. 100 μM of ATP was used at the end of each measurement as a positive control stimulus. A) Measurement with calcium-free extracellular solution (+10 mM EGTA). B) Measurement with the adenylyl cyclase blocker SQ-22536 (100 μM). C) Use of the phospholipase-C blocker U-73122 (10 μM). 100 μM of histamine was taken as a positive control. D) Measurement with the CNG channel blocker L-cis-diltiazem (150 μM). E) Overview of pharmacological measurement of HaCaT cells and primary keratinocytes (Kera). The mean amplitudes relative to the control measurements (dashed line) are indicated. MDL-12330A (40 μM). EGTA: calcium-free Ringer (HaCaT n=46, Kera n=52), SQ: SQ-22536 (HaCaT n=60, Kera n=26), MDL: MDL-12330A (HaCaT n=69, Kera n=24), U-73122 (HaCaT n=41, Kera n=25), L-cis-D.: L-cis-diltiazem (HaCaT n=41, Kera n=25). Mann-Whitney U test. ***: p<0.001. F) Determination of the cAMP contents of HaCaT cells after stimulation with Sandalore® by means of cAMP-Glo™ assays. The dots show the mean cAMP content including standard error after 10-minute Sandalore® stimulation (1 μM-10,000 μM). Significance was determined between HaCaT cells stimulated with Sandalore® and stimulated with an equivalent volume of DMSO (0.2%). Kruskal-Wallis Test with multiple comparison; n=3 experiments. *: p<0.05.

[1] = biological target: T1, recombinantly expressed OR2AT4 (Homo sapiens, UniProt A6NND4); experiment: Calcium imaging of transiently OR2AT4-transfected Hana3A cells; format: cell-based; details: for response rate of the Hana3A cells relative to the Ringer control: 1 mM odorant, 20 s stimulation, OR2AT4-transfected Hana3A cells
T1 construct: expressed in transfected cells; host or cells: Hana3A cells, transient transfection with pcDNA3-OR2AT4 by the calcium phosphate method
T1 sequence (A6NND4 1-320): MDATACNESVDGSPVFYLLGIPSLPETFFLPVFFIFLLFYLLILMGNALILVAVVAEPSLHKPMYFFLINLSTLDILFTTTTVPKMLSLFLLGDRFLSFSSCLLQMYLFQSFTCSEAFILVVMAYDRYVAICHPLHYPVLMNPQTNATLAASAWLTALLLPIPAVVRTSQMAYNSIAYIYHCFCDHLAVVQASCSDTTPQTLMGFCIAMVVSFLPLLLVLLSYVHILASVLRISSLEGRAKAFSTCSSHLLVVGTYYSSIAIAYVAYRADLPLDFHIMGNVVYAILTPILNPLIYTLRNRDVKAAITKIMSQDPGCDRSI
Experimental: Hana3A cells expressing stable endogenous olfactory transduction factors, which specifically target the incorporation of ORs into the cell membrane and thus improve activation capacity, were used as a heterologous expression system. Moreover, the 20 first N-terminal amino acids of rhodopsins (Rho-tag) were added before the N-terminus of the coding sequence of the OR, also in order to support heterologous expression.
A method established at the Department of Cell Physiology of Ruhr University Bochum for deorphanization studies is calcium imaging, in which activation of an OR by an odorant is visualized by a change in the intracellular calcium concentration of transfected cells using a fluorescent dye [cf. Wetzel et al. in: J. Neurosci. 19, pp. 7426-7433 (1999); Spehr et al. in: Science 299, pp. 2054-2058 (2003); Neuhaus et al. in: J. Biol. Chem. 284, pp. 16218-16225 (2009)]. In this method, the Hana3A cells are briefly (20 s) stimulated with an odorant and selected for odorant screenings of high concentrations (up to 1 mM) in order to confirm activation of ORs weakly expressed in Hana3A cells.
The activation of OR2AT4 by Sandalore® was first investigated by the calcium imaging method.
Odorants can not only activate a receptor, but can also act as antagonists to an OR.
(§3) Determination of receptive field of recombinantly expressed OR2AT4. […] As a control, untransfected Hana3A cells were simulated with Sandalore®. 100 μM of ATP was used at the end of each measurement as a positive control stimulus. […] The mean response rate including standard error of the cells is shown relative to the Ringer control. […] Isobornyl.: isobornyl cyclohexanol; S. öl: sandalwood oil. Kruskal-Wallis test with multiple comparison. *: p<0.05. […] Significance was determined between Hana3A cells transfected with OR2AT4-pcDNA3 and pcDNA3 without an insert. The dots show mean normalized luciferase-activity including standard error. Mann-Whitney U test; n=3 experiments. *: p<0.05; **: p<0.01; ***: p<0.001.
Antagonists of recombinantly expressed OR2AT4. […] 100 μM of ATP was used at the end of each measurement as a positive control stimulus. […] The mean response rate including standard error of the cells is shown relative to the Ringer control. Number of measurements: Ringer (23), Sandalore® (22), Sandalore®+dimetol (11), dimetol (11), Phenirat (14), Sandalore®+Phenirat (22), Oxyphenylon (12), and Sandalore®+Oxyphenylon (20). S: Sandalore®. Kruskal-Wallis test with multiple comparison. *: p<0.05.

[2] = biological target: T1, recombinantly expressed OR2AT4; experiment: CRE dual luciferase assay in OR2AT4-transfected Hana3A cells; format: cell-based; details: up to the highest useable concentrations 10-25 μM
Excerpt: In order to verify calcium imaging results and investigate dose-dependent activation of OR2AT4, a further method of deorphanization based on a dual luciferase system was used. In this method, in addition to the OR, two luciferases were introduced into the Hana3A cells. When the expressed OR is activated by an odorant and cAMP is formed in the further course of the signal cascade, this initiates expression of firefly luciferase via CRE (cAMP response elements). The second luciferase, Renilla luciferase, serves as a control for transfection and vitality of the cells. By calculating the two luciferase values, the activation capacity of an OR by an odorant can be determined. In the CRE luciferase assay, the odorant remains on the cells for hours in order to ensure that the luciferase is expressed. Because of the longer incubation time of the odorants and the possibility of activating more receptors in a 96-well format, this method is more sensitive than calcium imaging and is well-suited for establishing dose-response relationships.
For Brahmanol, however, a higher concentration (≥75 μM) was required than for Sandalore® (≥25 μM) in order to produce a significant effect at the receptor (FIG. 3c).
as §3

SMILES: COc1ccc([C@H]2Sc3ccccc3N(CCN(C)C)C(=O)[C@H]2OC(C)=O)cc1 (relative stereo) [L-cis-diltiazem]
effect of blocker on Sandalore-induced calcium signals (HaCaT cells): significantly reduced
effect of blocker on Sandalore-induced calcium signals (primary keratinocytes): significantly reduced

SMILES: CCCCCCCCO [1-octanol]
increase of the first amplitude induced by Sandalore after preincubation with gap junction blocker (HaCaT cells): approx. 400%
increase of the first amplitude induced by Sandalore after preincubation with gap junction blocker (primary keratinocytes; keratinocytes, 1-octanol 500 μM, Sandalore 500 μM): ~1000%

SMILES: O=C(O)CN(CCOCCOCCN(CC(=O)O)CC(=O)O)CC(=O)O [EGTA]
effect of blocker on Sandalore-induced calcium signals (HaCaT cells): significantly reduced
effect of blocker on Sandalore-induced calcium signals (primary keratinocytes): significantly reduced

SMILES: CC1=CCC(/C=C\C(C)C(C)O)C1(C)C (stereo not drawn) [Ebanol]
response rate of the Hana3A cells relative to the Ringer control [1]: only Brahmanol showed an increased response rate

activation of OR2AT4 in the luciferase assay [2]: no increased activation of OR2AT4
SMILES: CC1(CO)CC1CC1CC2CC2(C)C1(C)C (stereo not drawn) [Javanol]
response rate of the Hana3A cells relative to the Ringer control [1]: only Brahmanol showed an increased response rate

SMILES: CC(C)(O)CCCC1=CCC(C=O)CC1 (stereo not drawn) [Lyral]
odorant-induced calcium signals in skin cells (HaCaT cells; Lyral 1 mM): induces calcium signals in skin cells

SMILES: Cl.c1ccc(C2CCCC2NC2=NCCCCCCCCCCC2)cc1 (stereo not drawn) [MDL-12330A]
effect of blocker on Sandalore-induced calcium signals (HaCaT cells): significant reduction
effect of blocker on Sandalore-induced calcium signals (primary keratinocytes): significant reduction

SMILES: Nc1ncnc2c1ncn2C1CCCO1 (stereo not drawn) [SQ-22536]
effect of blocker on Sandalore-induced calcium signals (HaCaT cells): significant reduction
effect of blocker on Sandalore-induced calcium signals (primary keratinocytes): significant reduction

SMILES: COc1ccc2c(c1)CC[C@@H]1[C@@H]2CC[C@]2(C)[C@@H](NCCCCCCN3C(=O)C=CC3=O)CC[C@@H]12 [U-73122]
effect of blocker on Sandalore-induced calcium signals (HaCaT cells): no effect
effect of blocker on Sandalore-induced calcium signals (primary keratinocytes): no effect

SMILES: CC1(C)[C@@H](OC(=O)CCC(=O)O)CC[C@]2(C)[C@H]3C(=O)C=C4[C@@H]5C[C@@](C)(C(=O)O)CC[C@]5(C)CC[C@@]4(C)[C@]3(C)CC[C@@H]12 [carbenoxolone]
increase of the first amplitude induced by Sandalore after preincubation with gap junction blocker (HaCaT cells): the same result
effect on the Lyral-induced response pattern (HaCaT cells; pre-incubation with blocker 10 μM, Lyral 1 mM): No effect

effect on Sandalore-induced calcium signals in coapplication ([1]; coapplication with Sandalore 1:1, 1 mM respectively): no effect
effect of the odorant alone on the Hana3A cells ([1]; odorant alone, 1 mM): no effect
SMILES: CC(C)CCCC(C)(C)O [dimetol]
effect on Sandalore-induced calcium signals on coapplication (HaCaT cells; third application, costimulation 1:1 with Sandalore 1 mM): only slightly reduced
